Laboratory results as given in paper PMC8850458, “The AUTOTAC chemical biology platform for targeted protein degradation via the autophagy-lysosome system” (Nature Communications, 2022).
Where “and” joins values, the source holds several entries; their conditions need not be identical. Equal values may be shown once.

Legend:
[1] = target: tauP301L (Homo sapiens, UniProt P10636, P618L); assay: In vitro pulldown assay of biotinylated PBA; type: binding; conditions: tauP301L stably expressed in SH-SY5Y cells
Chain of tauP301L (P10636 1-441 isoform P10636-8 P301L): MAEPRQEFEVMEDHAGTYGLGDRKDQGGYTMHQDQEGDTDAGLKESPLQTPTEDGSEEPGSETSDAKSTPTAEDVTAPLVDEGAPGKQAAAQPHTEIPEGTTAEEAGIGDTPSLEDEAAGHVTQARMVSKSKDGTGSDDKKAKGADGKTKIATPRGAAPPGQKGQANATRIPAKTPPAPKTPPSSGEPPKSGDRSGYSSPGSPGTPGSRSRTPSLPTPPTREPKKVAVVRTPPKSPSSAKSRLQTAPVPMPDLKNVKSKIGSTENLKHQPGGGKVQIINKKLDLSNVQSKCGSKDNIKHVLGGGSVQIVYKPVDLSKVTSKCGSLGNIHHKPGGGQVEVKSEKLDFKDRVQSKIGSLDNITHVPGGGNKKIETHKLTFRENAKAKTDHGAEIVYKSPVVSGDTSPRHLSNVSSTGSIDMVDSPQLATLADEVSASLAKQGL
Description: A set of synthetic 12-mer peptides corresponding to the N-terminal sequences of the V-BiP (V[19]-[…]-biotin) and V-RGS4 (V^2-[…]-biotin) was C-terminally biotin-conjugated. Alternatively, biotinylated versions of YOK-1304, YT-8-8, YTK-1105, YOK-2204, and PBA were synthesized. To cross-link the above peptides with resin beads, biotin-conjugated peptides, and small molecule were mixed with high-capacity streptavidin agarose resin (Thermo Fisher Scientific) at a ratio of 0.5 mg of peptide per 1 mL of settled resin and incubated on a rotator at 4 °C overnight. After washing five times with PBS, the peptide/small molecule-bead conjugates were diluted with PBS at a 1:1 ratio. To prepare protein extracts, cells were collected by centrifugation and lysed by freezing and thawing at least 10 times in hypotonic buffer [10 mM KCl, 1.5 mM MgCl2, and 10 mM HEPES (pH 7.9)] with a protease inhibitor mix (Sigma). After centrifugation at 15,000 rpm 4 °C for 15 min, proteins were quantified using a BCA protein assay kit (Thermo Fisher Scientific). Total protein (200 μg) diluted in 300 μL of binding buffer [0.05% Tween-20, 10% glycerol, 0.2 M KCl, and 20 mM HEPES (pH 7.9)] were mixed with 50 μL of peptide/small molecule-bead resin and incubated at 4 °C for 2 h on a rotator. The protein-bound beads were collected by centrifugation at 2400 × g for 3 min and washed five times with binding buffer. […]

[2] = test system: RFP-GFP-hTauP301L pre-formed inclusion bodies; assay: ICC of mRFP-GFP-hTauP301L inclusion bodies (puncta, GFP/RFP ratio) in HeLa cells; type: cell-based; conditions: Fig. S6i, PBA-1105 given with O.A.
Description: Cells were cultured on coverslips coated with poly-L-lysine (Sigma) to observe cellular localization of proteins. Using 4% paraformaldehyde in PBS (pH 7.4), the cells were fixed for 15 min at room temperature and washed three times for 5 min with PBS. After fixing, the cells were permeabilized with 0.5% Triton X-100 in PBS solution for 15 min and washed three times with PBS for 5 min. The cells were blocked containing 2% BSA in PBS solution for 1 h at room temperature. Subsequently, the cells were incubated with primary antibody diluted in 2% BSA/PBS solution overnight at 4 °C, followed by washing the cells three times for 10 min with PBS and incubated with Alexa Fluor-conjugated secondary antibody diluted in 2% BSA/PBS for 30 min at room temperature. Using a DAPI-containing mounting medium (Vector Laboratories), the coverslips were mounted on glass slides. Confocal images were taken by laser scanning confocal microscope 510 Meta (Zeiss) and analyzed by Zeiss LSM Image Browser (ver. 4.2.0.121). […] Quantification results are shown as mean ± S.D. or S.E.M. of three independent experiments […]
Supplementary Fig. 6. […]
(0.1 μM, 24 h). (h) ICC in HeLa cells transiently expressing mRFP-GFP-hTauP301L and treated with okadaic acid (15 nM, 24 h) prior to the presence or absence of PBA-1105 (100 nM, […]
24 h). Scale bar, 10 µm. (i) Quantification of h for punctate formation and GFP/RFP ratio (n=3 biologically independent experiments each counting 50 cells and 10 puncta within one image).
Data are presented as mean values ± SD for aggregate formation and as mean values ± SEM […]
for GFP/RFP ratio. […]
(1 µM, 24 h) or negative control. P-values (from a two-sided unpaired t-test): **P < 0.00662 (for tau aggregate formation), **P < 0.00779 (for GFP/RFP ratio). Source data are provided

[3] = WST-based cell viability assay in LNCaP cells; conditions: human, LNCaP cells
[4] = test system: LNCaP cells; assay: WST-based cell viability assay in LNCaP cells; conditions: LNcaP, duplicates; for WST assay raw reading: listed as Vinclo.-2204
[5] = WST assay viability relative to con = 100, LNcaP, duplicates
[6] = WST assay viability, AVG %, LNcaP

SMILES: O=C(O)CCCc1ccccc1 [4-PBA, 4-phenylbutyric acid]
- binding of tauP301L in pulldown [1]: bound

SMILES: O=C(CCCc1ccccc1)NCCOCCOCCOCCNCc1ccc(OCc2ccccc2)c(OCc2ccccc2)c1 [PBA-1105]
- AVG GFP/RFP ratio per puncta, total AVG ([2]; con 1.00467): 0.4057
- AVG GFP/RFP ratio per puncta, relative % AVG ([2]; con 100): 40.3782%
- AVG GFP/RFP ratio per puncta, AVG per experiment ([2]; n=1 to n=3): 0.551 and 0.37 and 0.296
- puncta formation of cells with AVG RFP/GFP ratio < 0.5, AVG of cells per 50 cells ([2]; RFP-GFP-TauP301L, con 4.33333): 30.3333
- puncta formation of cells with AVG RFP/GFP ratio < 0.5, percentage AVG ([2]; RFP-GFP-TauP301L, con 8.66667): 60.6667
- puncta formation of cells with AVG RFP/GFP ratio < 0.5, cells counted per 50 cells ([2]; RFP-GFP-TauP301L, single experiments): 33 and 37 and 21

SMILES: C=CC(C)(O)C(=O)N(C(=O)NCCOCCOCCNCC(O)COc1ccc(OCCc2ccccc2)c(OCCc2ccccc2)c1)c1cc(Cl)cc(Cl)c1 (centres unmarked) [VinclozolinM2-2204]
- IC50 [3]: 4.7 µM
- viability at 0.01 µM [3, 5]: 93.5%
- viability at 0.1 µM [3, 5]: 92.5%
- viability at 1 µM [3, 5]: 89.8%
- viability at 10 µM [3, 5]: 24.6%
- viability at 50 µM [3, 5]: 1.83%
- viability at 100 µM [3, 5]: 3.03%
- viability at 0.01 µM [3, 6]: 92.9%
- viability at 0.1 µM [3, 6]: 91.6%
- viability at 1 µM [3, 6]: 89.9%
- viability at 10 µM [3, 6]: 30.9%
- viability at 50 µM [3, 6]: 1.93%
- viability at 100 µM [3, 6]: 3.08%
- WST assay raw reading ([4]; 0.01uM): 1.976 and 1.95
- WST assay viability relative to con = 100 ([4]; 0.01uM, listed as Vinclo.-2204, 0.01 µM): 92.2257
- WST assay raw reading ([4]; 0.1uM): 1.955 and 1.92
- WST assay viability relative to con = 100 ([4]; 0.1uM, listed as Vinclo.-2204, 0.1 µM): 90.7275
- WST assay raw reading ([4]; 1uM): 1.902 and 1.905
- WST assay viability relative to con = 100 ([4]; 1uM, listed as Vinclo.-2204, 1 µM): 89.9784
- WST assay raw reading ([4]; 10uM): 0.595 and 0.848
- WST assay viability relative to con = 100 ([4]; 10uM, listed as Vinclo.-2204, 10 µM): 37.1899
- WST assay raw reading ([4]; 50uM): 0.14 and 0.144
- WST assay viability relative to con = 100 ([4]; 50uM, listed as Vinclo.-2204, 50 µM): 2.031
- WST assay raw reading ([4]; 100uM): 0.164 and 0.166
- WST assay viability relative to con = 100 ([4]; 100uM, listed as Vinclo.-2204, 100 µM): 3.13
